Assay results taken from ChEMBL document CHEMBL1201862, “PubChem BioAssay data set” (2004).
Activity calls are given as the source filed them.

Tests used:
[1] = biological target: Sphingosine 1-phosphate receptor 2 (Homo sapiens, UniProt O95136); test: Dose Response Cell Based Assay for Agonists of the S1P2 Receptor of Purchased Analogues. [Related pubchem assays: 729, 843, 854, 736 ]; assay type: functional
HeLa = test: Cytotoxicity counterscreen assay for transcriptional activators of heat shock protein 70 (Hsp70). [Related pubchem assays: 1203, 1252 ]; assay type: functional; conditions: Homo sapiens;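 also: cells exposed to compound for 16 hours before readout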
[2] = reduction of Shn3 3'UTR-driven luciferase in osteoblasts – cell-based, Clone20 osteoblasts, firefly luciferase, cherry-picked, dose response (AID 624132); assay type: functional;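 also: firefly luciferase luminescence from reporter carrying the Shn3 3'UTR in osteoblasts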
[3] = non-specific 3'UTR reporter inhibition in Clone20-Shn3RL – cell-based, Renilla luciferase, cherry-picked, counter-screen for Shn3 inhibitor project, dose response (AID 624133); assay type: functional
Galanin receptor type 2 = Galanin receptor type 2 (Homo sapiens, UniProt O43603); test: Dose Response cell-based high-throughput screening assay to identify antagonists of galanin receptor 2 (GALR2). [Related pubchem assays: 828, 866 ]; assay type: functional
Galanin receptor type 2, sequence (O43603 whole entry): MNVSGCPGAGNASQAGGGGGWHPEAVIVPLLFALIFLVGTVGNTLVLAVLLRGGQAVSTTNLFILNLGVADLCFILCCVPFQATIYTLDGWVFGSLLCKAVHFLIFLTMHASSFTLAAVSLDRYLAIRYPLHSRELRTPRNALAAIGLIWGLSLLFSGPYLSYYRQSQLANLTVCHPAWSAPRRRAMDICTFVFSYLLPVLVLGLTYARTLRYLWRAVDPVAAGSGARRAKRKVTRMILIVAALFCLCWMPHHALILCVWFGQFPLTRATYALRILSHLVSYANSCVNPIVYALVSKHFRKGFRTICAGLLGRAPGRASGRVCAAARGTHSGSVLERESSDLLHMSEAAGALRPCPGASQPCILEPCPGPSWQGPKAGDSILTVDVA

[4] = biological target: T1, COUP transcription factor 2 (Homo sapiens, UniProt P24468); test: Luminescence-based cell-based high throughput dose response assay to identify inhibitors of COUP-TFII (NR2F2).; assay type: functional;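 also: HEK293 cells transiently cotransfected with COUP-TFII expression vector and reporter; luciferase reporter luminescence driven by COUP-TFII from the pX2-168 reporter plasmid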
T1 sequence (P24468 whole entry): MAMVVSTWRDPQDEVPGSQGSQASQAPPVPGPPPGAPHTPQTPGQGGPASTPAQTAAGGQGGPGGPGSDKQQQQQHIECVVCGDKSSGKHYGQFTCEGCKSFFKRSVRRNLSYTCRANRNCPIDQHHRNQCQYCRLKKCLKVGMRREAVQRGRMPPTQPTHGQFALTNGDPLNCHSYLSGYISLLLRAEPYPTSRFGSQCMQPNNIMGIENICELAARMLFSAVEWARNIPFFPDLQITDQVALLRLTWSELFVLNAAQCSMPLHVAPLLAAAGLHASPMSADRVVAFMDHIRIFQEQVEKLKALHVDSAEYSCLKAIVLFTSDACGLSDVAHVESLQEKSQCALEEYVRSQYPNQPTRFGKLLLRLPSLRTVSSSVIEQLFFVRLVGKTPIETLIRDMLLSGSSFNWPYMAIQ

INS1 = test: INS-1E survival protection against cytokine death – cell-based, luminescence, retest, dose response (AID 449756); assay type: functional; conditions: Rattus norvegicus;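 also: cell death triggered by IL-1 beta plus TNF-alpha plus IFN-gamma mixture; protective hits raise ATP signal compared with cytokine alone wells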
[5] = loss of viability in HepG2 cells – cell-based, CellTiter-Glo, cherry-picked, cytotoxicity control for Shn3 inhibitor project, dose response (AID 624134); assay type: functional
H9c2 = test: cells; assay type: functional, cell-based; conditions: Rattus norvegicus, H9c2, Myocardium;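 also: confirmatory concentration-response retest of ultra-high-throughput screening hits for modulation of myocardial damage; cell death induced by hydrogen peroxide oxidative stress; compound pretreatment for 60 min then peroxide exposure for 2 h; potency is for protecting the cells against peroxide damage rather than for killing them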
Ion channel NompC = Ion channel NompC (Danio rerio, UniProt Q7T1G6); test: Fluorescence counterscreen assay for TRPML3 agonists: dose response cell-based high-throughput screening assay to identify agonists of the transient receptor potential channel N1 (TRPN1). [Related pubchem assays: 1526, 1424, 1448 ]; assay type: functional
Ion channel NompC, sequence (Q7T1G6 whole entry): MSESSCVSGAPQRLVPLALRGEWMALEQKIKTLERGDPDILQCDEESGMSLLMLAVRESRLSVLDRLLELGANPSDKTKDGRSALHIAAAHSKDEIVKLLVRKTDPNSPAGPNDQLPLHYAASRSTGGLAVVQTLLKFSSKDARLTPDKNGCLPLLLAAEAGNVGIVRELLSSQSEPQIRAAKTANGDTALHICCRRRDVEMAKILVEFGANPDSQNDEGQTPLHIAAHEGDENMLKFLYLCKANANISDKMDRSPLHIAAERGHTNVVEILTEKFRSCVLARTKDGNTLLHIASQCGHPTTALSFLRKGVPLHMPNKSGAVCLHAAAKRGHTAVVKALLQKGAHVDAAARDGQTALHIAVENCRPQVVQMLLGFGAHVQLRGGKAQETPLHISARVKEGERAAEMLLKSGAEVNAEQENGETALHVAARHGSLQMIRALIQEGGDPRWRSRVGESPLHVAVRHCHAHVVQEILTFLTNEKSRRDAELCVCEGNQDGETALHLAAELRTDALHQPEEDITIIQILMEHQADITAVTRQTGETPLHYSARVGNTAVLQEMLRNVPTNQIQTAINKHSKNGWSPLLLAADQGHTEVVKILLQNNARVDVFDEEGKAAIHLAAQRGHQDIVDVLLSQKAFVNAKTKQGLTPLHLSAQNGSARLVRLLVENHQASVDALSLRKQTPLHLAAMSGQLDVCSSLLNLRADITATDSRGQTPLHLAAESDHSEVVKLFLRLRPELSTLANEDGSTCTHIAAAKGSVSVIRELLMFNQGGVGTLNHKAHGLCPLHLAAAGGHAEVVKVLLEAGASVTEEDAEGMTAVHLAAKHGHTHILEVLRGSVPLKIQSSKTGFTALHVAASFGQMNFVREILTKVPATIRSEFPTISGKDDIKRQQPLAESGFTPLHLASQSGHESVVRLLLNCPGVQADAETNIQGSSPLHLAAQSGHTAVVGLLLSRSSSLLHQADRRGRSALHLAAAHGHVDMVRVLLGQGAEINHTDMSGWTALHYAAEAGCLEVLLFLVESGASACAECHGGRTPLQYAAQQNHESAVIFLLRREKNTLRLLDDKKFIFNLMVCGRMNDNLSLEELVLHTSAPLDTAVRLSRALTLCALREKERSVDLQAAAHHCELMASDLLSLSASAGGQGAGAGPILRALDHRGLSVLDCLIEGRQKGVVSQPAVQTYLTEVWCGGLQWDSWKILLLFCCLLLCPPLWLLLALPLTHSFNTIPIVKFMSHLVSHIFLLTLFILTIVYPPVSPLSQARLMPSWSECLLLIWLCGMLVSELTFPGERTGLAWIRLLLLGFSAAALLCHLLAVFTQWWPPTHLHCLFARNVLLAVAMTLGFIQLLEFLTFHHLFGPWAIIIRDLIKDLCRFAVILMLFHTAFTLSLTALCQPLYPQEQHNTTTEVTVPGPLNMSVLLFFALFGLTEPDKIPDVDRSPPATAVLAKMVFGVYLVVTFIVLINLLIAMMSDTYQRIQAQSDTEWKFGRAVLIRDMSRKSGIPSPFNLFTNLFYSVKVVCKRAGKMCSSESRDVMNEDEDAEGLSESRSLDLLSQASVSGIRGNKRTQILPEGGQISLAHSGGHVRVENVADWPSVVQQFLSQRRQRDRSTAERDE

Mucolipin-3 = Mucolipin-3 (Homo sapiens, UniProt Q8TDD5); test: Dose response cell-based high-throughput screening assay for agonists of the transient receptor potential channel ML3 (TRPML3). [Related pubchem assays: 1526, 1424, 1448 ]; assay type: functional
Mucolipin-3, sequence (Q8TDD5 whole entry): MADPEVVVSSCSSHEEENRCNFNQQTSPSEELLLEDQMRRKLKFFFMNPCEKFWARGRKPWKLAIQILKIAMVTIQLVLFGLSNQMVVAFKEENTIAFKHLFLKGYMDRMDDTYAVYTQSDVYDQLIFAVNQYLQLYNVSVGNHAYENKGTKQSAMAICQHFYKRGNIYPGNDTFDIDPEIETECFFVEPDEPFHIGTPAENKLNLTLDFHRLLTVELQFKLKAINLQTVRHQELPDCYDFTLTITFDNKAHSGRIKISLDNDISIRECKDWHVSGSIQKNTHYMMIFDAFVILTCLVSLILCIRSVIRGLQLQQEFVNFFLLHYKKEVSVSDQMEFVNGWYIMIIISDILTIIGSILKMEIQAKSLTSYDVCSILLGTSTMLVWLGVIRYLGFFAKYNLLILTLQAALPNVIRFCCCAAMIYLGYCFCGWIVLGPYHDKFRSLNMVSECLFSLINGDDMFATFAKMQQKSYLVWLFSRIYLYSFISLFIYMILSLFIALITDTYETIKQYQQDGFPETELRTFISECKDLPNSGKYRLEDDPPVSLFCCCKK

Sphingosine 1-phosphate receptor 2, sequence (O95136 whole entry): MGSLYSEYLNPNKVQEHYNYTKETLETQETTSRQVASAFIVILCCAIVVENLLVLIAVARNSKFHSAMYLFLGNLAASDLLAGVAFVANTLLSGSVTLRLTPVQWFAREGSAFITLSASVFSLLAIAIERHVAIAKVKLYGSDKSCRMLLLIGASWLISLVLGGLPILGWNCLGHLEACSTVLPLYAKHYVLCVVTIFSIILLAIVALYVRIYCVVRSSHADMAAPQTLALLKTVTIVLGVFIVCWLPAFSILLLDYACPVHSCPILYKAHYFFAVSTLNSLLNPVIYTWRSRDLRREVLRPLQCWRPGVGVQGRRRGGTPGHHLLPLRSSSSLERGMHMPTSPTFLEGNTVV

COc1ccc(NC(=O)CN(C)CC(=O)c2cc(C)n(Cc3ccccc3)c2C)cc1
EC50 [1]: > 30 µM (not active)

COc1ccc(C(CNC(=O)c2cc3ccccc3o2)N2CCCCC2)cc1 (stereo unspecified)
CC50 (HeLa): > 99 µM (not active)

CC(=O)c1c(C)[nH]c(C(=O)OCC(=O)Nc2ccc(Cl)cc2[N+](=O)[O-])c1C
AC50 [2]: 0.325 µM (active)
AC50 [3]: 13.6 µM (active)
IC50 (Galanin receptor type 2): > 42 µM (not active)
IC50 [4]: 6.5 µM (active)
AC50 (INS1): 1.98 µM (active)
AC50 [5]: 53.2 µM (active)

CSc1nsc(SC)c1C(=O)N1CCN(S(=O)(=O)c2ccc(C)cc2)C1C(C)C (stereo unspecified)
IC50 (H9c2): > 79 µM (inactive)
EC50 (Ion channel NompC): > 29.9 µM (not active)
EC50 (Mucolipin-3): 10.5 µM (not active)
